The results in this text go back to patent US11331314B2, “Amine substituted triazole derivatives and uses thereof” (Bayer Pharma Aktiengesellschaft, priority 2017, dated 2022).

As usually defined, the IC50 is the concentration that inhibits the measured activity by half.

SMILES strings stand for the structures.

One assay deals with human V1a receptor (Homo sapiens, UniProt P37288). In words: Cellular in vitro assay for determining vasopressin receptor activity, V1a receptor cell line (photoprotein luminescence). It is filed as cell-based. As to conditions: for IC50: CHO cell line transfected with the human V1a receptor, agonist [Arg8]-vasopressin at EC50 concentration, read-out: IC50 hV1a; for ratio IC50 hV2/hV1a: selectivity ratio of the cellular IC50 values. The method in brief: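 CHO K1 cells stably expressing human V1a receptor with aequorin photoprotein, loaded overnight with coelenterazine. Compounds preincubated 10 min at various concentrations, then challenged with [Arg^8]-vasopressin at EC50 concentration. Calcium-driven luminescence read immediately; IC50 values derived.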

For another assay, the target named is T1, human V2 receptor (Homo sapiens, UniProt P30518).
T1 construct: expressed in transfected cells; host or cells: CHO K1 (ATCC) expressing firefly luciferase under a CRE-responsive promoter
In words: Cellular in vitro assay for determining vasopressin receptor activity, V2 receptor cell line (CRE-luciferase). Type of assay: cell-based. As to conditions: CHO cell line transfected with the human V2 receptor; agonist [Arg8]-vasopressin at EC50 concentration; read-out: IC50 hV2.

Sequence of human V1a receptor (P37288 whole entry): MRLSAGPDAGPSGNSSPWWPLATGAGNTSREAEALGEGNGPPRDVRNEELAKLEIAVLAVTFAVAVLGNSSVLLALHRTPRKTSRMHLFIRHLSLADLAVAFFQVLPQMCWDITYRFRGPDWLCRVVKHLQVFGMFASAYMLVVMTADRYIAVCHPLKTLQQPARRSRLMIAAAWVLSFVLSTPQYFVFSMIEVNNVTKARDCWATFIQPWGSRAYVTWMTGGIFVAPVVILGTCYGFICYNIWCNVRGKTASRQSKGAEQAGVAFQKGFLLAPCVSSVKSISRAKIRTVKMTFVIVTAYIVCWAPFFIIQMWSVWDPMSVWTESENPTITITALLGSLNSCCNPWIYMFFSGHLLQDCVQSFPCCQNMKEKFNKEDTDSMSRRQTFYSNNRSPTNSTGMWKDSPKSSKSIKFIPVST
T1 sequence (P30518 whole entry): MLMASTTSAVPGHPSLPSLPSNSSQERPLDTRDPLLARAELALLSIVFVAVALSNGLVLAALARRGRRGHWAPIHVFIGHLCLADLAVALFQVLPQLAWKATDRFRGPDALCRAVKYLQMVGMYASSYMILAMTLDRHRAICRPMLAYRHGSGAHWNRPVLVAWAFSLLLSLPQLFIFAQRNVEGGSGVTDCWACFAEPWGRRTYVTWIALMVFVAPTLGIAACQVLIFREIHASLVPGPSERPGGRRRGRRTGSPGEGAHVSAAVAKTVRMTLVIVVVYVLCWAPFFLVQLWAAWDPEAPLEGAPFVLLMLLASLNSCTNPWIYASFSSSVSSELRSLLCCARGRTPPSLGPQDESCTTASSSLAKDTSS

Consider `O=c1n(Cc2nc(N3CC(O)(C(F)(F)F)C3)n(-c3ccccc3Cl)n2)nc(-c2ccc(Cl)cc2)n1C[C@H](O)C(F)(F)F` [Example 36, 5-(4-Chlorophenyl)-2-({1-(2-chlorophenyl)-5-[3-hydroxy-3-(trifluoromethyl)azetidin-1-yl]-1H-1,2,4-triazol-3-yl}methyl)-4-[(2S)-3,3,3-trifluoro-2-hydroxypropyl]-2,4-dihydro-3H-1,2,4-triazol-3-one], for which, on human V1a receptor, the IC50 worked out at 0.82 nM and the “ratio IC50 hV2/hV1a” value is recorded as 2.1. Further, on human V2 receptor, the IC50 was found to be 1.75 nM.
On to `O=c1n(Cc2nc(N3CCC(F)(F)C3)n(-c3ccccc3Cl)n2)nc(-c2ccc(Cl)cc2)n1C[C@H](O)C(F)(F)F` [Example 37, 5-(4-Chlorophenyl)-2-{[1-(2-chlorophenyl)-5-(3,3-difluoropyrrolidin-1-yl)-1H-1,2,4-triazol-3-yl]methyl}-4-[(2S)-3,3,3-trifluoro-2-hydroxypropyl]-2,4-dihydro-3H-1,2,4-triazol-3-one], for which, at human V1a receptor, the IC50 is 0.44 nM and the “ratio IC50 hV2/hV1a” value amounted to 3.1. Also, the IC50 on human V2 receptor amounted to 1.33 nM.
Regarding `O=c1n(Cc2nc(N3CCC4OCCC43)n(-c3ccccc3Cl)n2)nc(-c2ccc(Cl)cc2)n1C[C@H](O)C(F)(F)F` (stereo partly drawn) [Example 38, 5-(4-Chlorophenyl)-2-{[1-(2-chlorophenyl)-5-(hexahydro-4H-furo[3,2-b]pyrrol-4-yl)-1H-1,2,4-triazol-3-yl]methyl}-4-[(2S)-3,3,3-trifluoro-2-hydroxypropyl]-2,4-dihydro-3H-1,2,4-triazol-3-one], the IC50 was found to be 0.4 nM at human V1a receptor and 3.55 nM at human V2 receptor. The “ratio IC50 hV2/hV1a” value at human V1a receptor worked out at 8.9.
Turning to `CC1(C)CN(c2nc(Cn3nc(-c4ccc(Cl)cc4)n(C[C@H](O)C(F)(F)F)c3=O)nn2-c2ccccc2Cl)CCO1` [Example 39, 5-(4-Chlorophenyl)-2-{[1-(2-chlorophenyl)-5-(2,2-dimethylmorpholin-4-yl)-1H-1,2,4-triazol-3-yl]methyl}-4-[(2S)-3,3,3-trifluoro-2-hydroxypropyl]-2,4-dihydro-3H-1,2,4-triazol-3-one], the IC50 is 0.58 nM at human V1a receptor and 18 nM at human V2 receptor. In addition, on human V1a receptor, the “ratio IC50 hV2/hV1a” value worked out at 31.0.
`O=C(CNc1nc(Cn2nc(-c3ccc(Cl)cc3)n(C[C@H](O)C(F)(F)F)c2=O)nn1-c1ccccc1Cl)NCC(F)(F)F` [Example 40, N^2-[1-(2-Chlorophenyl)-3-({3-(4-chlorophenyl)-5-oxo-4-[(2S)-3,3,3-trifluoro-2-hydroxypropyl]-4,5-dihydro-1H-1,2,4-triazol-1-yl}methyl)-1H-1,2,4-triazol-5-yl]-N-(2,2,2-trifluoroethyl)glycinamide]: the IC50 worked out at 0.72 nM at human V1a receptor and 7.2 nM on human V2 receptor. The “ratio IC50 hV2/hV1a” value on human V1a receptor was determined as 10.1.
Take `NS(=O)(=O)CCNc1nc(Cn2nc(-c3ccc(Cl)cc3)n(C[C@H](O)C(F)(F)F)c2=O)nn1-c1ccccc1Cl` [Example 44, 2-{[1-(2-Chlorophenyl)-3-({3-(4-chlorophenyl)-5-oxo-4-[(2S)-3,3,3-trifluoro-2-hydroxypropyl]-4,5-dihydro-1H-1,2,4-triazol-1-yl}methyl)-1H-1,2,4-triazol-5-yl]amino}ethanesulfonamide]: the IC50 on human V1a receptor was 0.34 nM; on human V2 receptor, 1.16 nM. In addition, on human V1a receptor, the “ratio IC50 hV2/hV1a” value stood at 3.5.
For `O=C1CCCN1CCNc1nc(Cn2nc(-c3ccc(Cl)cc3)n(C[C@H](O)C(F)(F)F)c2=O)nn1-c1ccccc1Cl` [Example 45, 5-(4-Chlorophenyl)-2-{[1-(2-chlorophenyl)-5-{[2-(2-oxopyrrolidin-1-yl)ethyl]amino}-1H-1,2,4-triazol-3-yl]methyl}-4-[(2S)-3,3,3-trifluoro-2-hydroxypropyl]-2,4-dihydro-3H-1,2,4-triazol-3-one], at human V1a receptor, the IC50 turned out to be 2.45 nM and the “ratio IC50 hV2/hV1a” value was 5.3. Besides, at human V2 receptor, the IC50 was found to be 13 nM.
`O=C1NCCN1CCNc1nc(Cn2nc(-c3ccc(Cl)cc3)n(C[C@H](O)C(F)(F)F)c2=O)nn1-c1ccccc1Cl` [Example 46, 5-(4-Chlorophenyl)-2-{[1-(2-chlorophenyl)-5-{[2-(2-oxoimidazolidin-1-yl)ethyl]amino}-1H-1,2,4-triazol-3-yl]methyl}-4-[(2S)-3,3,3-trifluoro-2-hydroxypropyl]-2,4-dihydro-3H-1,2,4-triazol-3-one]: at human V1a receptor, the IC50 is 0.65 nM and the “ratio IC50 hV2/hV1a” value worked out at 8.5. Further, the concentration for half-maximal inhibition (IC50) on human V2 receptor worked out at 5.47 nM.
In the same order, the values of `O=c1n(Cc2nc(N3CC4(C3)CS(=O)(=O)C4)n(-c3ccccc3Cl)n2)nc(-c2ccc(Cl)cc2)n1C[C@H](O)C(F)(F)F` [Example 47, 5-(4-Chlorophenyl)-2-{[1-(2-chlorophenyl)-5-(2,2-dioxido-2-thia-6-azaspiro[3.3]hept-6-yl)-1H-1,2,4-triazol-3-yl]methyl}-4-[(2S)-3,3,3-trifluoro-2-hydroxypropyl]-2,4-dihydro-3H-1,2,4-triazol-3-one] are 0.96 nM, 5.8 and 5.63 nM.
On the same counts, the results for `O=C1CN(c2nc(Cn3nc(-c4ccc(Cl)cc4)n(C[C@H](O)C(F)(F)F)c3=O)nn2-c2ccccc2Cl)CCN1` [Example 48, 4-[1-(2-Chlorophenyl)-3-({3-(4-chlorophenyl)-5-oxo-4-[(2S)-3,3,3-trifluoro-2-hydroxypropyl]-4,5-dihydro-1H-1,2,4-triazol-1-yl}methyl)-1H-1,2,4-triazol-5-yl]piperazin-2-one] are 0.64 nM, 16.3 and 10.4 nM.
Turning to `C[C@@H](O)CNc1nc(Cn2nc(-c3ccc(Cl)cc3)n(C[C@H](O)C(F)(F)F)c2=O)nn1-c1ccccc1Cl` [Example 49, 5-(4-Chlorophenyl)-2-{[1-(2-chlorophenyl)-5-{[(2R)-2-hydroxypropyl]amino}-1H-1,2,4-triazol-3-yl]methyl}-4-[(2S)-3,3,3-trifluoro-2-hydroxypropyl]-2,4-dihydro-3H-1,2,4-triazol-3-one], at human V1a receptor, the IC50 was found to be 0.63 nM and the “ratio IC50 hV2/hV1a” value is recorded as 3.1. In addition, the 50% inhibitory concentration (IC50) at human V2 receptor amounted to 1.94 nM.
On to `C[C@H](O)CNc1nc(Cn2nc(-c3ccc(Cl)cc3)n(C[C@H](O)C(F)(F)F)c2=O)nn1-c1ccccc1Cl` [Example 50, 5-(4-Chlorophenyl)-2-{[1-(2-chlorophenyl)-5-{[(2S)-2-hydroxypropyl]amino}-1H-1,2,4-triazol-3-yl]methyl}-4-[(2S)-3,3,3-trifluoro-2-hydroxypropyl]-2,4-dihydro-3H-1,2,4-triazol-3-one], for which, at human V1a receptor, the IC50 amounted to 0.47 nM and the “ratio IC50 hV2/hV1a” value was 4.5. For the same molecule, the IC50 on human V2 receptor came out at 2.08 nM.
In the same order, the values of `CS(=O)(=O)CCNc1nc(Cn2nc(-c3ccc(Cl)cc3)n(C[C@H](O)C(F)(F)F)c2=O)nn1-c1ccccc1Cl` [Example 51, 5-(4-Chlorophenyl)-2-{[1-(2-chlorophenyl)-5-{[2-(methylsulfonyl)ethyl]amino}-1H-1,2,4-triazol-3-yl]methyl}-4-[(2S)-3,3,3-trifluoro-2-hydroxypropyl]-2,4-dihydro-3H-1,2,4-triazol-3-one] are 0.71 nM, 2.5 and 1.75 nM.
On the same counts, the results for `O=c1n(Cc2nc(NCC3(O)CCC3)n(-c3ccccc3Cl)n2)nc(-c2ccc(Cl)cc2)n1C[C@H](O)C(F)(F)F` [Example 52, 5-(4-Chlorophenyl)-2-{[1-(2-chlorophenyl)-5-{[(1-hydroxycyclobutyl)methyl]amino}-1H-1,2,4-triazol-3-yl]methyl}-4-[(2S)-3,3,3-trifluoro-2-hydroxypropyl]-2,4-dihydro-3H-1,2,4-triazol-3-one] are 0.65 nM, 1.3 and 0.83 nM.
On the same counts, the results for `O=c1n(Cc2nc(NCC3(O)CC3)n(-c3ccccc3Cl)n2)nc(-c2ccc(Cl)cc2)n1C[C@H](O)C(F)(F)F` [Example 54, 5-(4-Chlorophenyl)-2-{[1-(2-chlorophenyl)-5-{[(1-hydroxycyclopropyl)methyl]amino}-1H-1,2,4-triazol-3-yl]methyl}-4-[(2S)-3,3,3-trifluoro-2-hydroxypropyl]-2,4-dihydro-3H-1,2,4-triazol-3-one] are 0.54 nM, 2.9 and 1.56 nM.
For the molecule `O=c1n(Cc2nc(N3CCS(=O)(=O)CC3)n(-c3ccccc3Cl)n2)nc(-c2ccc(Cl)cc2)n1C[C@H](O)C(F)(F)F` [Example 55, 5-(4-Chlorophenyl)-2-{[1-(2-chlorophenyl)-5-(1,1-dioxidothiomorpholin-4-yl)-1H-1,2,4-triazol-3-yl]methyl}-4-[(2S)-3,3,3-trifluoro-2-hydroxypropyl]-2,4-dihydro-3H-1,2,4-triazol-3-one], at human V1a receptor, the 50% inhibitory concentration (IC50) was found to be 0.39 nM and the “ratio IC50 hV2/hV1a” value is recorded as 67.1. Moreover, the IC50 on human V2 receptor was 26 nM.
In the same order, the values of `NC(=O)[C@@H]1CCN(c2nc(Cn3nc(-c4ccc(Cl)cc4)n(C[C@H](O)C(F)(F)F)c3=O)nn2-c2ccccc2Cl)C1` [Example 56, (3R)-1-[1-(2-Chlorophenyl)-3-({3-(4-chlorophenyl)-5-oxo-4-[(2S)-3,3,3-trifluoro-2-hydroxypropyl]-4,5-dihydro-1H-1,2,4-triazol-1-yl}methyl)-1H-1,2,4-triazol-5-yl]pyrrolidine-3-carboxamide] are 0.73 nM, 7.7 and 5.65 nM.
Consider `NC(=O)[C@H]1CCN(c2nc(Cn3nc(-c4ccc(Cl)cc4)n(C[C@H](O)C(F)(F)F)c3=O)nn2-c2ccccc2Cl)C1` [Example 57, (3S)-1-[1-(2-Chlorophenyl)-3-({3-(4-chlorophenyl)-5-oxo-4-[(2S)-3,3,3-trifluoro-2-hydroxypropyl]-4,5-dihydro-1H-1,2,4-triazol-1-yl}methyl)-1H-1,2,4-triazol-5-yl]pyrrolidine-3-carboxamide], for which the figures for the IC50 at human V1a receptor and at human V2 receptor were 0.74 nM and 4.9 nM, respectively. Besides, the “ratio IC50 hV2/hV1a” value on human V1a receptor is listed as 6.6.
